Here are results for 34 compounds from patent US12226425B2, “Inhibitors of ARG1 and/or ARG2” (Arcus Biosciences, Inc., priority 2018, dated 2025).

The assay concerns the target T1, recombinant human ARG1 (Homo sapiens, UniProt P05089).
T1 sequence (P05089 1-322): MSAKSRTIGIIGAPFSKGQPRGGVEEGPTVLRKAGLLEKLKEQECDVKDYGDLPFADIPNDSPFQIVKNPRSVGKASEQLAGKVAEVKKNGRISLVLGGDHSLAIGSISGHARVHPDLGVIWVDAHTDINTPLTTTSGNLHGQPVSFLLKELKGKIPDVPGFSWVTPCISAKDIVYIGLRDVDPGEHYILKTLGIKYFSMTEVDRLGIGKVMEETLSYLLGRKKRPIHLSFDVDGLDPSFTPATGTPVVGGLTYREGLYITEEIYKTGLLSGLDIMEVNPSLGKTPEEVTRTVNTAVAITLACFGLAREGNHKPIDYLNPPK
Description: Arginase coupled enzymatic assay using recombinant human ARG1. Type of assay: biochemical. The settings on record: 2 nM ARG1, 0.8 mM L-Arginine, 10 mM sodium phosphate pH 7.4, 0.1 mM MnCl2, 37° C., absorption at 570 nm; read-out: hARG1 potency (IC50). As for the experimental part:
Purified recombinant human ARG1 and ARG2 were prepared in 50 mM Bicine, pH 8.5, 100 μM MnCl2, 20% glycerol and 1mM DTT at a final stock concentration of 14.4 μM and 7.56 μM respectively. 2.5 nM of either ARG1 or ARG2 were incubated with varying concentrations of compounds in 10 mM sodium phosphate, pH 7.4, 0.1 mM MnCl2 and 2.5% DMSO in a total volume of 40 μl in a 384-well microplate (Corning™ #3640) at 37° C. for 1 h. The arginase enzymatic reaction was initiated by addition of 10 μl of 4 mM L-Arginine pre-incubated in 10 mM sodium phosphate, pH 7.4, and 0.1 mM MnCl2 at 37° C. into the enzyme and compound mixture, giving the final reaction conditions: 2 nM of ARG1 or ARG2 and 0.8 mM of L-Arginine in 10 mM sodium phosphate, pH 7.4, 0.1 mM MnCl2 and 2% DMSO with varying concentrations of compounds. Following 2 h incubation at 37° C., the arginase enzymatic reaction was stopped by transfer of 10 μl of reaction into 10 μl of detection mix (204 μM Amino-2-Borono-6-Hexanoic Acid, 0.25 μl Arginase Enzyme mix, 0.25 μl Arginase Developer, 0.25 μl Arginase Converter Enzyme in Arginase Assay Buffer from Arginase Activity Colorimetric Assay Kit, BioVision Inc. #K755-100) in a transparent 384-well microplate (Greiner #781801). The plate was immediately put into a plate reader (Synergy™ Neo2 Multi-Mode Microplate Reader) to monitor absorption at 570 nm at 37° C. Absorption values at 12˜20 min were used to calculate compound potency. The value of the DMSO blank (MIN inhibition=100% activity) was used as a negative control. The positive control was established by adding 8 μl of enzyme and DMSO mix into 10 μl of detection mix followed by addition of 2 μl of L-Arginine (MAX inhibition=0% activity). To calculate the percent activity, Equation 1 was used. Abs570nm is the value at a given compound concentration:
A counter-screen was performed to identify any inhibition of the coupling enzymes by the test compounds. 10 μl of 0.26 mM of urea with varying concentrations of compounds in 10 mM sodium phosphate, pH 7.4, 0.1 mM MnCl2 and 2% DMSO were added into 10 μl of detection mix in place of the arginase enzymatic reaction mix. Absorption was monitored at 570 nm as described above. The values of a no substrate blank (without urea; MAX inhibition=0% activity) and a DMSO blank (MIN inhibition=100% activity) were used as positive and negative controls respectively. […] Inactivity in the counter-screen was used to confirm that results accurately reflected IC50 values for ARG1 and ARG2.
On to `NCc1cccc2c1C[C@H](CCCB(O)O)[C@]2(N)C(=O)O`, for which the IC50 fell in the range of 100 to 1000 nM.

Take `N[C@@]1(C(=O)O)c2cccc(CO)c2C[C@@H]1CCCB(O)O`: the IC50 is > 1000 nM.

Turning to `N[C@@]1(C(=O)O)c2cccc(-c3cn[nH]c3)c2C[C@@H]1CCCB(O)O`, the IC50 was > 1000 nM.

As for `CN[C@@]1(C(=O)O)c2cc(CN3CC(F)(F)C3)c(Cl)cc2C[C@@H]1CCCB(O)O`, the IC50 lay in the range of 100 to 1000 nM.

For `CN[C@@]1(C(=O)O)c2cc(-c3ncccc3C)c(F)cc2C[C@@H]1CCCB(O)O`, the IC50 was 100 to 1000 nM.

`CN[C@@]1(C(=O)O)c2cc(N3CC[C@H](O)C3)c(F)cc2C[C@@H]1CCCB(O)O`: the IC50 lay in the range of 100 to 1000 nM.

On to `CNCc1cc2c(cc1F)C[C@H](CCCB(O)O)[C@]2(NC)C(=O)O`, for which the IC50 was < 100 nM.

As for `CN[C@@]1(C(=O)O)c2cc(CN3CCCC3)c(F)cc2C[C@@H]1CCCB(O)O`, the half-inhibitory concentration (IC50) was < 100 nM.

For `CN[C@@]1(C(=O)O)c2cc(CN(C)C)c(Cl)cc2C[C@@H]1CCCB(O)O`, the half-inhibitory concentration (IC50) is < 100 nM.

With `CN[C@@]1(C(=O)O)c2cc(-c3cccnc3)c(F)cc2C[C@@H]1CCCB(O)O`, the IC50 lay within 100 to 1000 nM.

Take `CN[C@@]1(C(=O)O)c2cc(-c3ccc(CN)cc3)c(Cl)cc2C[C@@H]1CCCB(O)O`: the IC50 was < 100 nM.

`CN[C@@]1(C(=O)O)c2cc(Nc3ccccn3)c(F)cc2C[C@@H]1CCCB(O)O`: the IC50 fell in the range of 100 to 1000 nM.

For `CN[C@@]1(C(=O)O)c2cc([C@H](N)C(F)(F)F)ccc2C[C@@H]1CCCB(O)O`, the IC50 lay in the range of 100 to 1000 nM.

On to `CN[C@@]1(C(=O)O)c2cc(Cn3ccnc3N)c(Cl)cc2C[C@@H]1CCCB(O)O`, for which the IC50 is < 100 nM.

For `CN[C@@]1(C(=O)O)c2cc(CN)ccc2C[C@@H]1CCCB(O)O`, the IC50 is < 100 nM.

As to `CN[C@@]1(C(=O)O)c2cc(CNC(C)=O)ccc2C[C@@H]1CCCB(O)O`, the half-inhibitory concentration (IC50) lay in the range of 100 to 1000 nM.

With `CN[C@@]1(C(=O)O)c2cc(-c3ccccc3CN)c(F)cc2C[C@@H]1CCCB(O)O`, the IC50 is < 100 nM.

With `CN[C@@]1(C(=O)O)c2cc(CNC(=O)[C@H](C)N)ccc2C[C@@H]1CCCB(O)O`, the IC50 is < 100 nM.

For `CN[C@@]1(C(=O)O)c2cc(-c3ccc(CN)cc3)ccc2C[C@@H]1CCCB(O)O`, the half-inhibitory concentration (IC50) is < 100 nM.

Consider `CN[C@@]1(C(=O)O)c2cc(CNCC(F)(F)F)c(F)cc2C[C@@H]1CCCB(O)O`, for which the 50% inhibitory concentration (IC50) was 100 to 1000 nM.

For the compound `CN[C@@]1(C(=O)O)c2cc(CN3CCCC3(C)C)c(F)cc2C[C@@H]1CCCB(O)O`, the half-maximal inhibitory concentration (IC50) was < 100 nM.

For the compound `CN[C@@]1(C(=O)O)c2cc(CN3CC[C@@H](F)C3)c(F)cc2C[C@@H]1CCCB(O)O`, the IC50 was < 100 nM.

`CN[C@@]1(C(=O)O)c2cc(CN3CCC(F)(F)CC3)c(F)cc2C[C@@H]1CCCB(O)O`: the half-maximal inhibitory concentration (IC50) lay within 100 to 1000 nM.

As to `CC[C@@H](N)c1cc2c(cc1Cl)C[C@H](CCCB(O)O)[C@]2(NC)C(=O)O`, the IC50 is < 100 nM.

As for `CC[C@H](N)c1cc2c(cc1Cl)C[C@H](CCCB(O)O)[C@]2(NC)C(=O)O`, the IC50 is < 100 nM.

As for `CN[C@@]1(C(=O)O)c2cc(-c3cccc(CN)c3)c(Cl)cc2C[C@@H]1CCCB(O)O`, the IC50 was < 100 nM.

As to `CN[C@@]1(C(=O)O)c2cc(CN3CCCCC3)c(F)cc2C[C@@H]1CCCB(O)O`, the IC50 was < 100 nM.

As to `CN[C@@]1(C(=O)O)c2cc(-c3ncccc3N)c(F)cc2C[C@@H]1CCCB(O)O`, the IC50 lay in the range of 100 to 1000 nM.

In the case of `CN[C@@]1(C(=O)O)c2cc(Cc3ccccn3)c(Cl)cc2C[C@@H]1CCCB(O)O`, the 50% inhibitory concentration (IC50) is 100 to 1000 nM.

Consider `CN[C@@]1(C(=O)O)c2cc(-c3cc(F)ccc3CN)c(F)cc2C[C@@H]1CCCB(O)O`, for which the half-inhibitory concentration (IC50) was < 100 nM.

`CN[C@@]1(C(=O)O)c2cc([C@H](N)C3CC3)c(F)cc2C[C@@H]1CCCB(O)O`: the IC50 is < 100 nM.

Regarding `CC[C@@H](N)c1cc2c(cc1F)C[C@H](CCCB(O)O)[C@]2(NC)C(=O)O`, the IC50 is < 100 nM.

Turning to `CC[C@H](N)c1cc2c(cc1F)C[C@H](CCCB(O)O)[C@]2(NC)C(=O)O`, the IC50 was < 100 nM.

Regarding `CN[C@@]1(C(=O)O)c2cc(CN3CCC(c4ccccc4)CC3)c(F)cc2C[C@@H]1CCCB(O)O`, the concentration for half-maximal inhibition (IC50) is < 100 nM.

Broadly, the IC50 is the concentration that gives 50% inhibition.
